As a reminder, the IC50 is the concentration needed to halve the response being measured. A higher IC50 goes with weaker potency. What is called Ki is a measure of affinity in units of concentration, obtained from inhibition or displacement. The low end stands for tighter binding, the high end for weaker binding.

One assay concerns the target D(2) dopamine receptor (Homo sapiens, UniProt P14416). Kind of assay: Displacement of [3H]-spiperone from dopamine D2 receptor.
In assay [1] the target is Serotonin 2 (5-HT2) receptor (Homo sapiens, UniProt P41595+P28223+P28335). The assay is described as follows: Displacement of [3H]ketanserin from 5-hydroxytryptamine 2 receptor. It is filed as protein assay. Background: Displacement assays read how much labelled ligand stays bound in the presence of the test substance.

Chain of D(2) dopamine receptor (P14416 whole entry): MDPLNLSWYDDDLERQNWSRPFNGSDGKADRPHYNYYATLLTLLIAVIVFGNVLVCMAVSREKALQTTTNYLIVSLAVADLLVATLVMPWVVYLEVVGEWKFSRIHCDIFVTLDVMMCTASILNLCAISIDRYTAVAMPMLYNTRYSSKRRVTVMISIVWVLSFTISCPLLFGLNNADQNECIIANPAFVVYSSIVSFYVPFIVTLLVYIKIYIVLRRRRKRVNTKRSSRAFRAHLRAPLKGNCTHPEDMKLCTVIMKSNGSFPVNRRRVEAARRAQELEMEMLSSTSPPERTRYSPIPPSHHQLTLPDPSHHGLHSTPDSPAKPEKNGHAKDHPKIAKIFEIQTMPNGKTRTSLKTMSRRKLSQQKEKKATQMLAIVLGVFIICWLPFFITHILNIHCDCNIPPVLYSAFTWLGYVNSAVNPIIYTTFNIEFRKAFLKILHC

On D(2) dopamine receptor, `CN(C(=O)C#Cc1ccccc1)C1CCN(Cc2ccccc2)CC1.O=C(O)/C=C/C(=O)O` came in with an IC50 of 4.9 µM. Further, the Ki in assay [1] was 1.7 µM.

Consider `CN(C(=O)/C=C/c1ccccc1)C1CCN(Cc2ccccc2)CC1.O=C(O)/C=C/C(=O)O`, for which the IC50 at D(2) dopamine receptor came to 7.1 µM. The Ki in assay [1] amounted to 1.5 µM.

`C(=C\c1ccccc1)/CN(c1ccccc1)C1CCN(Cc2ccccc2)CC1.O=C(O)/C=C/C(=O)O` had an IC50 on D(2) dopamine receptor of over 10 µM. Further, in assay [1], the Ki was over 10 µM.

Molecule `C(=C\c1ccccc1)/CNC1CCN(Cc2ccccc2)CC1.O=C(O)/C=C/C(=O)O` had a concentration for half-maximal inhibition (IC50) on D(2) dopamine receptor of over 10 µM. This molecule also came in with a Ki in assay [1] of 4.6 µM.

For the molecule `C(#Cc1ccccc1)CN(c1ccccc1)C1CCN(Cc2ccccc2)CC1.O=C(O)/C=C/C(=O)O`, the IC50 on D(2) dopamine receptor was 0.89 µM. This molecule had a Ki in assay [1] of 0.28 µM.

`O=C(/C=C/c1ccccc1)NC1CCN(Cc2ccccc2)CC1.O=C(O)/C=C/C(=O)O` displayed an IC50 at D(2) dopamine receptor of 4.7 µM. The Ki in assay [1] came to 0.1 µM.

As to `C(=C\c1ccccc1)/CN(C/C=C/c1ccccc1)C1CCN(Cc2ccccc2)CC1.O=C(O)/C=C/C(=O)O`, at D(2) dopamine receptor, the IC50 was over 10 µM. This molecule also registered a Ki in assay [1] of 0.55 µM.

For `CN(C/C=C/c1ccccc1)C1CCN(Cc2ccccc2)CC1.O=C(O)/C=C/C(=O)O`, the IC50 on D(2) dopamine receptor was over 10 µM. Further, the Ki in assay [1] worked out at 0.84 µM.

Consider `C(#Cc1ccccc1)CNC1CCN(Cc2ccccc2)CC1.O=C(O)/C=C/C(=O)O`, for which, on D(2) dopamine receptor, the IC50 is over 10 µM. Also, the Ki in assay [1] worked out at 3.3 µM.

As to `CN(CC#Cc1ccccc1)C1CCN(Cc2ccccc2)CC1.O=C(O)/C=C/C(=O)O`, the IC50 at D(2) dopamine receptor was 4.1 µM. Further, the Ki in assay [1] amounted to 0.32 µM.

Consider `O=C(C#Cc1ccccc1)NC1CCN(Cc2ccccc2)CC1.O=C(O)/C=C/C(=O)O`, for which the IC50 on D(2) dopamine receptor turned out to be 2.5 µM. This molecule showed a Ki in assay [1] of 0.28 µM.

Source of the values: ChEMBL document CHEMBL1127992, “Novel conformationally restricted aromatic piperidines as selective sigma receptor ligands” (Bioorg Med Chem Lett, 1994).
